Assays:
[1] = tested on: kokumi (initial taste, middle-after taste) scored by panelists; assay: quantitative organoleptic evaluation test of kokumi-imparting activity; format: in vivo, human; conditions: for Intensity of kokumi, Initial taste: inosine monophosphate 0.05 g/dl, sodium chloride 0.5 g/dl; for Intensity of kokumi, Initial taste / Intensity of kokumi, Middle-after taste: score 0 control, 3 strong, 5 extremely strong, n=4
Method: Degree of kokumi-imparting activity of γ-Glu-Abu was investigated through a quantitative organoleptic evaluation test.
The quantitative organoleptic evaluation test was carried out as follows. Strength of the kokumi-imparting activity of a test compound was measured by using a mixture containing the test compound at 0.001 to 0.5 g/dl in distilled water containing sodium glutamate (0.05 g/dl), inosine monophosphate (0.05 g/dl), and sodium chloride (0.5 g/dl). A sample of the distilled water containing sodium glutamate, inosine monophosphate, and sodium chloride to which any test compound was not added was used as a no addition control. Samples that became acidic relative to the no addition control after dissolution of the test compound were used after pH of them was adjusted with NaOH to be within the range of ±0.2 from that of the no addition control.
The test was performed with organoleptic scores of 0 for the control, 3 for strong effect, and 5 for extremely strong effect, and n=4. Moreover, in order to make the criteria more definite, the scores of 0.001 g/dl of γ-Glu-Val-Gly for the initial taste and the middle-after taste were defined to be 3.0. The “middle-after taste” is a taste sensed in the periods for the middle taste and the aftertaste. Specifically, the initial taste, middle taste, and aftertaste are tastes sensed in the periods of 0 to 2 seconds, 2 to 5 seconds, and after 5 seconds, after eating, respectively, and the “middle-after taste” is a taste sensed in the period from 2 seconds to around 30 seconds. For the scoring, the linear scale method was used, in which determined scores were noted on a straight line on which positions of scores of from −5 to 5 were indicated. The panelists were consisted of persons who had experience of development of seasonings for foodstuffs for one year or longer in total, and could judge the difference of the titers of γ-Glu-Cys-Gly and γ-Glu-Val-Gly added to the tasty and salty solution to be about 10 times (this ability was periodically confirmed).
Kokumi-imparting activities of γ-Glu-Cys and other dipeptides were determined by the same quantitative organoleptic evaluation test as mentioned above.

[2] = storage stability; format: physicochemical; conditions: compared with γ-Glu-Cys
[3] = tested on: CaSR; assay: CaSR agonist activity; conditions: previously found by the inventors
CaSR, sequence (P41180 20-1078): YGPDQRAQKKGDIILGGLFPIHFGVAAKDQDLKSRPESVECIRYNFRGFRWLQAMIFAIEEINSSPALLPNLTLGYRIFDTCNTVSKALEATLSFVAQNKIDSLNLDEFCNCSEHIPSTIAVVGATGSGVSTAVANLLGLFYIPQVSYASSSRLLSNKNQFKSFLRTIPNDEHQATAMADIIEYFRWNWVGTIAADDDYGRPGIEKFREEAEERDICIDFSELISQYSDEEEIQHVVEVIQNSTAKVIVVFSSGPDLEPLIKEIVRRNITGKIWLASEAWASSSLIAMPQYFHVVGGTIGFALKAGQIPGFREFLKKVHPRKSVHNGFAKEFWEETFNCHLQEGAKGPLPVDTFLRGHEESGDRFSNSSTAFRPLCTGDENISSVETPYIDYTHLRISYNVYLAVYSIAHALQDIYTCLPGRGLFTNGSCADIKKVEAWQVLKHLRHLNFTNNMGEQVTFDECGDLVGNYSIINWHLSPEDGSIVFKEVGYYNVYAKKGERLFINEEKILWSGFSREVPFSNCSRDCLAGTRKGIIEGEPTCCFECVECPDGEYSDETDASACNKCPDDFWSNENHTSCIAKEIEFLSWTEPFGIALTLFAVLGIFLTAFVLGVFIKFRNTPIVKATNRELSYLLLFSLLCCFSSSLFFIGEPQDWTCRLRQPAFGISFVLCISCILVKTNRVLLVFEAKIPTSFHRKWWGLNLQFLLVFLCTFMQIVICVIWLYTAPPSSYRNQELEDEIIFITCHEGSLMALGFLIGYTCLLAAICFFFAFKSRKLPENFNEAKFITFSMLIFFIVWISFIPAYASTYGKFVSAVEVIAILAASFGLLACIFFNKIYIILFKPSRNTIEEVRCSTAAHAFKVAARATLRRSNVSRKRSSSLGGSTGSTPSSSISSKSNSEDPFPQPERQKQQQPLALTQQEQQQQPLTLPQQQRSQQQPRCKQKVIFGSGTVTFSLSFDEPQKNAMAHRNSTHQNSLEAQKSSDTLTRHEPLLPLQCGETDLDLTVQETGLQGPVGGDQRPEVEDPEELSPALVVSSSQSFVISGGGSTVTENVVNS

[4] = 0.2 g/dl in distilled water with sodium glutamate 0.05 g/dl
[5] = 0.2 g/dl in the same tasty and salty solution
[6] = 0.01 g/dl in distilled water with sodium glutamate 0.05 g/dl
[7] = 0.01 g/dl in the same tasty and salty solution

Molecule	Intensity of kokumi, Initial taste [1, 4]	Intensity of kokumi, Middle-after taste [1, 5]	Intensity of kokumi, Initial taste [1, 6]	Intensity of kokumi, Middle-after taste [1, 7]	further results
C[C@H](NC(=O)CC[C@H](N)C(=O)O)C(=O)O [γ-Glu-Ala]	4.5	4.3			
L-γ-glutamyl-L-2-aminobutyric acid [γ-Glu-Abu]					Intensity of kokumi, Initial taste ([1]; 0.005 g/dl in distilled water with sodium glutamate 0.05 g/dl): 3.8; Intensity of kokumi, Middle-after taste ([1]; 0.005 g/dl in the same tasty and salty solution): 3.2; kokumi-imparting activity (in words) ([1]; addition concentration range 0.001 to 0.5 g/dl): showed kokumi-imparting activity in a broad range; kokumi titer (in words) ([1]; compared with γ-Glu-Ala): extremely high titer; storage stability (in words) [2]: superior storage stability; CaSR agonist activity (in words) [3]: high CaSR agonist activity
N[C@@H](CCC(=O)N[C@@H](CO)C(=O)O)C(=O)O [γ-Glu-Ser]	3.6	3.0			
CC(C)[C@H](NC(=O)CC[C@H](N)C(=O)O)C(=O)O [γ-Glu-Val]			3.1	2.4	
N[C@@H](CCC(=O)N[C@@H](CS)C(=O)O)C(=O)O [γ-Glu-Cys, γ-glutamylcysteine]			3.1	3.1	
